Drawing on PubChem BioAssay (NCI), this text covers TGI for 15 molecules.

What all share (assay): growth of human tumour cells (NCI), 48 h
Assay [1] relates to SF-295 CNS.
Assay [2] relates to HOP-92 NSCLC.
Assay [3] deals with SF-268 CNS.
Assay [4] relates to SK-MEL-5 melanoma.
Assay [5] has as its system HL-60(TB) leukemia.
For assay [6], the system named is SNB-19 CNS.
Assay [7] has as its system OVCAR-4 ovarian.
Assay [8] relates to HCT-116 colon.
For assay [9], the system named is HOP-62 NSCLC.

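All cell lines were grown in 96-well plates and treated with compound for 48 hours. TGI is the concentration that stops growth completely.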

Consider `COc1ccc(S(=O)(=O)NC(C)C(=O)O)cc1` (stereo not drawn), for which the TGI in [1], in assay [2], in assay [3], in assay [4], in assay [5] and in assay [6] was > 100 µM each time. Further, in [7], the TGI is > 100 µM.

Turning to `CN(C)c1ccc2c(c1)C(=O)N(OS(=O)(=O)c1ccc([N+](=O)[O-])cc1)C2=O`, the TGI in assay [1] was 62.7 µM; in assay [8] it was > 10 µM; in assay [2] it was > 10 µM; in [3], 80.8 µM; in [4], > 100 µM; in assay [9] it was > 100 µM. Besides, the TGI in assay [5] was 76 µM; in assay [6], > 100 µM; in assay [7], 31.5 µM.

In the case of `CCOc1ccccc1NC(=O)CCC(=O)OC`, the TGI in assay [1], in assay [8], in [2], in assay [3], in assay [4] and in assay [9] was > 100 µM throughout. Further, the TGI is > 78.8 µM in assay [5], > 100 µM in assay [6] and > 100 µM in assay [7].

As for `O=C(O)CN(c1ccccc1)S(=O)(=O)c1ccc(NC(=O)c2ccccc2)cc1`, the TGI in assay [2], in assay [3], in [5], in assay [6] and in assay [7] was > 100 µM each time.

For `N#C/C(=C\c1ccccc1O)C(N)=O`, the TGI in [1], in assay [8], in assay [2], in assay [3], in assay [4] and in [9] was > 100 µM throughout. Further, the TGI in assay [5] is 43.3 µM; in [6], > 100 µM; in assay [7], > 100 µM.

Take `Cc1ccc(C(=O)O/N=C2/CCCC/C2=C\c2ccccc2)cc1`: the TGI in assay [1] was > 100 µM; in assay [8], 32.7 µM; in [2] it was > 100 µM; in assay [3] it was 28.2 µM; in [4], > 100 µM; in assay [9] it was > 100 µM. In addition, the TGI in assay [5] is 45.1 µM; in assay [6] it was > 100 µM; in assay [7], > 100 µM.

With `CC1=CC2CC(C)=C(CC[C@]3(C)CC[C@H]([C@@H](C)C(=O)O)OO3)C(C)(C)C2CC1` (stereo partly drawn), the TGI was 2.67 µM in [1]; 0.943 µM in assay [8]; 0.369 µM in assay [2]; 3.24 µM in [3]; 2.52 µM in [4]; 3.41 µM in assay [9]. For the same molecule, the TGI in assay [5] turned out to be 0.106 µM; in assay [6] it was 3.08 µM; in [7], 0.971 µM.

Take `NNC(=S)N/N=C(\CCCC(=O)NCCc1ccccc1)CC(=O)c1ccccc1`: the TGI in assay [1], in assay [8], in assay [2], in assay [3], in assay [4] and in [9] was > 100 µM each time. For the same molecule, the TGI in [5], in assay [6] and in assay [7] was > 100 µM in each case.

On to `O=C1OC(=O)c2c1c(-c1ccccc1)cn2-c1ccc(Cl)cc1`, for which the TGI is > 100 µM in [1]; > 100 µM in assay [8]; > 100 µM in assay [2]; > 100 µM in assay [3]; 27.9 µM in [4]; > 100 µM in assay [9]. The TGI in assay [5] and in assay [6] was > 100 µM each time.

For the molecule `Cc1cccc(C(=O)c2cccc3ccccc23)c1C(=O)O`, the TGI in [1], in [8], in assay [2], in [3], in [4] and in assay [9] was > 100 µM in each case. In addition, the TGI in [6] and in assay [7] was > 100 µM in each case.

As for `COC(=O)Cc1cc(OC)c(OC)cc1Br`, the TGI in assay [1], in assay [8], in [2], in [3], in assay [9] and in assay [5] was > 100 µM in each case. Also, the TGI in assay [6] and in [7] was > 100 µM in each case.

In the case of `COc1cc2c(cc1O)C=NCC2`, the TGI in assay [1], in assay [8], in assay [2], in [3], in assay [4] and in assay [5] was > 100 µM each time. Moreover, the TGI in assay [6] and in [7] was > 100 µM throughout.

Turning to `c1ccc(SC2(Sc3ccccc3)CCCC2)cc1`, the TGI in assay [1], in assay [8], in assay [2], in assay [3], in assay [4] and in [9] was > 100 µM throughout. The TGI in [5], in [6] and in [7] was > 100 µM throughout.

As to `CCC1(C)NN=c2s/c(=C/c3ccc(OC)cc3)c(=O)n2N1` (stereo not drawn), the TGI in [1] is > 100 µM; in assay [8], > 100 µM; in [2], 96.3 µM; in [3] it was > 100 µM; in assay [4], > 100 µM; in assay [9], > 100 µM. Moreover, the TGI in assay [6] and in [7] was > 100 µM throughout.

Consider `O=C(O)c1ccccc1Cc1ccco1`, for which the TGI in [1], in [8], in assay [2], in [3], in assay [4] and in assay [9] was > 100 µM each time. For the same molecule, the TGI in [6] and in assay [7] was > 100 µM in each case.
